Here are results for two molecules from patent US11638723B2, “Method for generating T cells progenitors” (Assistance Publique—Hopitaux de Paris, priority 2017, dated 2023).

Structures are written as SMILES.

Assay [1] deals with DL-4 T-cell precursors. As to the kind of experiment: Analysis of T cell receptor rearrangement. Type of assay: cell-based, human. The method, then: TCR gene rearrangement analysis was performed in duplicate and on the two independently purified subsets (average is shown). TCR-δ quantification (D δ2-D δ3, D δ2-J δ1, and D δ3-J δ1) was performed with the listed sets of primers and probes. The analysis of TCR rearrangements by multiplex fluorescent PCR was performed by separation of fluorochrome-labeled single stand PCR products in a capillary sequencing polymer and detected via automated laser scanning.

Assay [2] has as its system CD34+ cells from cord blood. As to the kind of experiment: DL-4 culture of CD34+ cells, T-cell precursor generation (flow cytometry). Type of assay: cell-based, human. The following applies: FIG. 9.
Experimental: CD34+ cells from human CB or mobilized peripheral blood samples were cultured in 24-well plates or 6-well plates that had been coated with recombinant human fibronection (RetroNectin®, Clontech/Takara) and DL-4 (5 μg/ml, PX'Therapeutics, Grenoble, France). Coating was performed for 2 h at 37° C., DL-4 coated wells were then blocked with bovine serum albumin 2% (BSA) in phosphate-buffered saline (PBS) for 30 minutes at 37° C. and washed with PBS. […] Cultured cells were analyzed by fluorescence-activated cell sorting (FACS) after 3 and 7 days of culture on DL-4 respectively to exclude CD34-/CD7-myeloid cells from subsequent analyses.
Human cells were stained and analyzed using a Gallios analyzer (Beckman Coulter, Krefeld, Germany). […] The data were analyzed using FlowJo software (Treestar, Ashland, Oreg.) after gating on viable, 7AAD-negative cells.
The data were analyzed using FlowJo software (version 10.2, Treestar, Ashland, Oreg.) after gating on viable, 7AAD-negative cells.
Assay [3] concerns the target T1, Aryl hydrocarbon/Dioxin receptor (AhR) (Homo sapiens, UniProt P35869).
T1 sequence (P35869 11-848): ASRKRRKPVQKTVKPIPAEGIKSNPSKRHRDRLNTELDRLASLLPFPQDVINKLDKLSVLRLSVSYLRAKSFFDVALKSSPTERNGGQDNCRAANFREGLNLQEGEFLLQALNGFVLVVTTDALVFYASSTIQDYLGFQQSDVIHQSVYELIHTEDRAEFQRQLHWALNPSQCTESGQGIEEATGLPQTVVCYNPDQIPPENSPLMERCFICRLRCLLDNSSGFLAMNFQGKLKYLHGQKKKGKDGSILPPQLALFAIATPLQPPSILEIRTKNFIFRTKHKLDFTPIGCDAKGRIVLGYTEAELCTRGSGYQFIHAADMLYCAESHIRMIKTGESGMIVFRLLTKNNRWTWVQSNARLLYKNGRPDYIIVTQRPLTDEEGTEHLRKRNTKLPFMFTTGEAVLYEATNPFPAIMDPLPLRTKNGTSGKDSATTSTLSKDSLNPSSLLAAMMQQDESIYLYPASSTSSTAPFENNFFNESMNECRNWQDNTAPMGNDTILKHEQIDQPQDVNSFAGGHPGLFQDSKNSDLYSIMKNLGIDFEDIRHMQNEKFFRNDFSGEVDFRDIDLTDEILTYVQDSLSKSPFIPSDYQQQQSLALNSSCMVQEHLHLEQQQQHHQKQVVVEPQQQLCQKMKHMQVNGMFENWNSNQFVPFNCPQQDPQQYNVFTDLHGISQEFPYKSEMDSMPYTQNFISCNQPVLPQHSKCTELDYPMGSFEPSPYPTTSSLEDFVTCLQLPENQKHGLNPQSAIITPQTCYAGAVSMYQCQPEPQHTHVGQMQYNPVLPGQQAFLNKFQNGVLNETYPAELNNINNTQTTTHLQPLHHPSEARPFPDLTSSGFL
The following applies: cited from earlier work.

With `CC(C)n1cnc2c(NCCc3ccc(O)cc3)nc(-c3csc4ccccc34)nc21` [SR1, 4-(2-(2-(Benzo[b]thiophen-3-yl)-9-isopropyl-9H-purin-6-ylamino)ethyl)phenol], the TCRdelta rearrangements result in assay [1] (CB cells) is given as “Detection of D52-D53 rearrangements”. Also, the “signs of TCR rearrangement” value in assay [1] (after 7 days of culture) is reported as “do not exhibit any signs of TCR rearrangement”. In assay [2], the “T-cell differentiation, CD5+CD7+ cells at day 7” value is “accelerates T-cell differentiation”.

As a reminder, the IC50 is the concentration needed to halve the response being measured. As to `Cc1ccccc1N=Nc1ccc(NC(=O)c2ccnn2C)c(C)c1` [CH 223191], the IC50 in assay [3] is 0.03 µM.
